Test results from the NIST ThermoML archive (doi:10.1021/je049585t).

Assay: molar heat capacity at constant pressure
Settings: 101.33 kPa

CC1=CCC2C(=O)OC(=O)C2C1 (stereo not given) [4-methyl-cyclohex-4-ene-1, 2-dicarboxylic acid anhydride]
Settings | molar heat capacity at constant pressure [J/K/mol]
80 K, Crystal | 65.23
80.45 K, Crystal | 63.17
81.95 K, Crystal | 63.26
83.53 K, Crystal | 63.39
85 K, Crystal | 64.37
85.17 K, Crystal | 63.65
86.78 K, Crystal | 64.05
88.38 K, Crystal | 64.45
89.95 K, Crystal | 65.12
90 K, Crystal | 64.76
91.5 K, Crystal | 65.63
93.03 K, Crystal | 66.26
94.54 K, Crystal | 66.83
95 K, Crystal | 66.05
96.03 K, Crystal | 67.49
97.51 K, Crystal | 68.15
98.97 K, Crystal | 68.87
100 K, Crystal | 67.97
100.41 K, Crystal | 69.38
101.84 K, Crystal | 69.93
103.26 K, Crystal | 70.47
104.66 K, Crystal | 71.22
105 K, Crystal | 70.28
106.05 K, Crystal | 71.84
107.43 K, Crystal | 72.36
108.8 K, Crystal | 72.92
110 K, Crystal | 72.81
110.15 K, Crystal | 73.65
111.5 K, Crystal | 74.07
112.83 K, Crystal | 74.66
114.15 K, Crystal | 75.18
115 K, Crystal | 75.44
115.47 K, Crystal | 75.87
116.77 K, Crystal | 76.33
118.07 K, Crystal | 76.91
119.35 K, Crystal | 77.54
120 K, Crystal | 78.06
120.63 K, Crystal | 78.18
121.9 K, Crystal | 78.77
123.16 K, Crystal | 79.3
124.42 K, Crystal | 79.75
125 K, Crystal | 80.62
125.66 K, Crystal | 80.33
126.9 K, Crystal | 80.87
128.14 K, Crystal | 81.35
129.36 K, Crystal | 81.93
130 K, Crystal | 83.08
130.58 K, Crystal | 82.44
131.83 K, Crystal | 82.95
132.96 K, Crystal | 83.78
134.16 K, Crystal | 84.15
135 K, Crystal | 85.43
135.38 K, Crystal | 84.59
136.59 K, Crystal | 85.28
137.72 K, Crystal | 85.94
138.93 K, Crystal | 86.2
140 K, Crystal | 87.67
140.14 K, Crystal | 86.69
141.27 K, Crystal | 86.97
142.48 K, Crystal | 87.65
143.6 K, Crystal | 88.22
144.72 K, Crystal | 88.9
145 K, Crystal | 89.84
145.85 K, Crystal | 89.28
146.98 K, Crystal | 89.92
148.1 K, Crystal | 90.42
149.22 K, Crystal | 90.83
150 K, Crystal | 91.95
150.43 K, Crystal | 91.65
151.55 K, Crystal | 91.97
153.01 K, Crystal | 92.74
154.67 K, Crystal | 93.61
155 K, Crystal | 94.06
156.32 K, Crystal | 94.64
158.04 K, Crystal | 95.26
159.69 K, Crystal | 95.96
160 K, Crystal | 96.19
161.35 K, Crystal | 96.78
162.97 K, Crystal | 97.8
164.62 K, Crystal | 98.83
165 K, Crystal | 98.39
166.25 K, Crystal | 99.65
167.8 K, Crystal | 100.5
169.46 K, Crystal | 101.34
170 K, Crystal | 100.7
171.37 K, Crystal | 102.49
173.61 K, Crystal | 103.54
175 K, Crystal | 103.17
175.85 K, Crystal | 104.8
178.12 K, Crystal | 106.11
180 K, Crystal | 105.81
180.28 K, Crystal | 107.31
182.43 K, Crystal | 108.56
184.61 K, Crystal | 109.77
185 K, Crystal | 108.67
186.68 K, Crystal | 111.17
188.84 K, Crystal | 112.46
190 K, Crystal | 111.75
190.92 K, Crystal | 113.85
192.99 K, Crystal | 115.1
195 K, Crystal | 115.07
195.07 K, Crystal | 116.42
197.13 K, Crystal | 117.72
199.15 K, Crystal | 118.98
200 K, Crystal | 118.62
201.22 K, Crystal | 120.78
203.2 K, Crystal | 121.75
205 K, Crystal | 122.4
205.18 K, Crystal | 123.46
207.19 K, Crystal | 124.73
209.14 K, Crystal | 126.14
210 K, Crystal | 126.39
211.09 K, Crystal | 127.51
213.03 K, Crystal | 128.87
214.97 K, Crystal | 130.45
215 K, Crystal | 130.57
216.9 K, Crystal | 132.32
218.84 K, Crystal | 133.96
220 K, Crystal | 134.91
220.75 K, Crystal | 135.72
222.7 K, Crystal | 137.13
224.58 K, Crystal | 138.58
225 K, Crystal | 139.36
226.56 K, Crystal | 139.98
228.41 K, Crystal | 141.35
230 K, Crystal | 143.9
230.19 K, Crystal | 142.86
232.01 K, Crystal | 144.4
233.86 K, Crystal | 145.93
235 K, Crystal | 148.46
235.74 K, Crystal | 147.41
237.59 K, Crystal | 149.22
239.37 K, Crystal | 150.76
240 K, Crystal | 153.02
241.16 K, Crystal | 152.29
242.94 K, Crystal | 153.83
244.82 K, Crystal | 155.45
245 K, Crystal | 157.52
246.54 K, Crystal | 157.09
248.36 K, Crystal | 158.9
250 K, Crystal | 161.95
250.17 K, Crystal | 160.56
251.99 K, Crystal | 162.22
253.81 K, Crystal | 163.9
255 K, Crystal | 166.26
255.54 K, Crystal | 165.36
257.36 K, Crystal | 167.29
259.09 K, Crystal | 168.63
260 K, Crystal | 170.45
260.82 K, Crystal | 170.5
262.61 K, Crystal | 172.01
264.31 K, Crystal | 173.55
265 K, Crystal | 174.52
266.12 K, Crystal | 175.31
267.82 K, Crystal | 177.02
269.53 K, Crystal | 178.52
270 K, Crystal | 178.5
271.28 K, Crystal | 180.17
273.31 K, Crystal | 181.94
275 K, Crystal | 182.44
275.35 K, Crystal | 183.81
277.03 K, Crystal | 185.45
278.73 K, Crystal | 187.1
280 K, Crystal | 186.41
280.36 K, Crystal | 188.67
282.45 K, Crystal | 190.66
284.97 K, Crystal | 193.03
285 K, Crystal | 190.55
287.46 K, Crystal | 195.7
289.88 K, Crystal | 197.97
290 K, Crystal | 195
292.31 K, Crystal | 200.61
294.67 K, Crystal | 203.16
295 K, Crystal | 199.98
297.1 K, Crystal | 205.53
298.15 K, Crystal | 203.5
299.37 K, Crystal | 207.64
300 K, Crystal | 205.75
301.81 K, Crystal | 210.9
304.16 K, Crystal | 213.44
305 K, Crystal | 212.62
306.51 K, Crystal | 215.82
308.81 K, Crystal | 218.8
310 K, Crystal | 221
311.13 K, Crystal | 221.26
313.43 K, Crystal | 224.91
315 K, Crystal | 231.34
315.72 K, Crystal | 227.54
317.98 K, Crystal | 230.32
320 K, Crystal | 244.2
320.22 K, Crystal | 234.71
322.44 K, Crystal | 240.42
324.6 K, Crystal | 251.25
325 K, Crystal | 260.21
326.7 K, Crystal | 266.66
328.7 K, Crystal | 300.96
330 K, Crystal | 280.12
337.34 K, Liquid | 308.51
339.25 K, Liquid | 307.6
340 K, Liquid | 306.94
341.15 K, Liquid | 306.76
343.06 K, Liquid | 306.95
344.96 K, Liquid | 308.07
345 K, Liquid | 308.18
346.86 K, Liquid | 309.65
348.76 K, Liquid | 311.73
350 K, Liquid | 313.29
350.67 K, Liquid | 314.26
352.57 K, Liquid | 316.99
354.47 K, Liquid | 319.51
355 K, Liquid | 320.24
356.36 K, Liquid | 322.01
358.26 K, Liquid | 324.95
360 K, Liquid | 327.6
360.13 K, Liquid | 327.9
